Test results from article PMC9804387, “Substrate Peptidomimetic Inhibitors of P. falciparum Plasmepsin X with Potent Antimalarial Activity” (Chemmedchem, 2022).
Where a name gives a salt, the structure may show the parent alone.

Experiments:
PMIX = system: PMIX; design: method as in PMID 29074775, PMID 32109369, PMID 23260352, PMID 29519896; details: Figure 1, described in literature; cited from earlier work
PMX = details: cited from earlier work
Pf 3D7 = system: Pf 3D7; design: method as in PMID 29074775, PMID 32109369, PMID 23260352, PMID 29519896; details: Figure 1, described in literature; cited from earlier work
[1] = system: P. falciparum 3D7 parasites; test: Asexual stage of arrest assay (Giemsa smears, SYBR green flow cytometry); assay type: cell-based
Method: Asexual stage of arrest phenotyping. Inhibition of PMX prevents parasites from egressing from the host erythrocyte and arrests asexual stage parasites at the late schizont stage. […] In this assay, highly synchronized asexual ring stage parasites were treated with ten times the EC50 of 38 and 49c (2) and the DMSO vehicle control. The parasite stage of arrest was analyzed by microscopy of Giemsa‐stained blood smears, while parasitemia was quantified by flow cytometry at 12, 24, 36 and 48 hours.
Stage Arrestment Assay. As previously described,[42] P. falciparum 3D7 parasites were synchronized using a 5 % D‐sorbitol solution prior to assay set‐up. Ring‐staged parasites were adjusted to a final parasitemia and haematocrit of 1 % and 2 %, respectively. Compounds were added to a final concentration of 10×EC50 which were replenished after 24 h. Plates were incubated at 37°C for 48 h and blood smears and 50 μL aliquots in triplicate were harvested every 12 h. Aliquots for flow cytometry analysis were fixed in 0.25 % glutaraldehyde for 30 min at room temperature before being washed in PBS and stored at 4 °C until completion of the assay. To determine parasitemia, fixed blood pellets were stained with 50 μL 2.5×SYBR Green (Invitrogen) for 30 min before being diluted with 180 μL of PBS. 100 000 cells for each sample were counted using an Attune Flow Cytometer (ThermoFisher Scientific). Blood smears were stained with Giemsa and morphology of parasites were examined using a Zeiss Axio Observer microscope.

in vitro = assay type: cell-based; details: human
Method: HepG2 Cytotoxicity Assay. HepG2 cytotoxicity assays were performed as previously described.[41] Briefly, human hepatocyte HepG2 cells were cultured in DMEM supplemented with 10 % FCS at 37 °C and 5 % CO2 in a humidified incubator. Cells were seeded at 1000 cells/well in 50 μL in 384‐well plates (Grenier) and compounds incubated in ten‐point 1 : 2‐fold dilution series for 48 h. Cytotoxicity was determined using Cell Titer‐Glo (Promega), normalized to DMSO alone controls (100 % viability) and control compound Bortezomib (0 % viability at 10 μM). CC50 values were calculated by GraphPad Prism (8.0.2) software using a nonlinear regression four‐parameter fit analysis with the sigmoidal dose response (variable slope).

[2] = system: SERA5 processing by SUB1, indicative of upstream activity by PMX; test: SERA5 processing inhibition assay in parasites (western blot, anti-SERA5); assay type: cell-based, P. falciparum; details: 38 at 10 μM
Source text: PMX and PMIX ligand cleavage in P. falciparum parasites. It was next determined whether 38 could inhibit PMX and PMIX processing of known invasion and egress ligands in P. falciparum parasites. […] SERA5 is not a direct substrate of PMX, but is processed by SUB1 which itself is activated by PMX. The degree of downstream processing of SERA5 by SUB1 is indicative of PMX activity.
(§1) In this experiment, synchronized late trophozoite/early schizont stage parasites, expressing HA‐tagged ASP, were incubated with 38 (10 μM), the positive control WM382 (1) (2.5 nM) (a dual potent inhibitor of PMIX and PMX) and the DMSO vehicle control. Parasites from each treatment condition were then lysed and the processing of the known PMX and PMIX substrates were detected by western blot as a corollary of protease activity.
P. falciparum ASP and SERA5 Processing Inhibition Assay. P. falciparum substrate processing inhibition assays were performed as previously described.[28] Synchronized ring stage cultures were treated with test compounds 38 (10 μM) and WM382 (2.5 nM)[28] or DMSO as a vehicle control. […] HA‐tagged apical sushi protein (ASP) was detected in the merozoite fraction with anti‐HA mAb and SERA5 was detected in the supernatant fraction with an anti‐SERA5 polyclonal Ab. […]

[3] = system: PMIX processing of the ASP protein; test: ASP processing inhibition assay in parasites (western blot, anti-HA); assay type: cell-based, P. falciparum; details: 38 at 10 μM, HA‐tagged ASP parasites
Method: as §1
P. falciparum ASP and SERA5 Processing Inhibition Assay. P. falciparum substrate processing inhibition assays were performed as previously described.[28] Synchronized ring stage cultures were treated with test compounds 38 (10 μM) and WM382 (2.5 nM)[28] or DMSO as a vehicle control. The parasite cultures were grown to the schizont stage before passing over LD magnetic columns (Miltenyi Biotech) to remove uninfected erythrocytes. Parasites were eluted from columns with RPMI 1640 (in‐house) culture medium to which the appropriate inhibitor at the same concentration had been added. Eluted parasites were adjusted to 5×10^6 schizonts/mL and 150 μL added per well of a 96‐well flat‐bottomed culture plate. […] HA‐tagged apical sushi protein (ASP) was detected in the merozoite fraction with anti‐HA mAb and SERA5 was detected in the supernatant fraction with an anti‐SERA5 polyclonal Ab. […]

Compound | IC50 (PMIX) [nM] | IC50 (PMX; Figure 1, described in literature) [nM] | selectivity for PMX compared to PMIX (PMX) [fold] | EC50 (Pf 3D7) [nM] | merozoite egress / stage of arrest ([1]; 49c (2) at 10×EC50 (6 nM), Giemsa smears and flow cytometry, up to 48 h) | CC50 at 48 h (in vitro) [nM] | parasitemia / establishment of infection by flow cytometry ([1]; 38 at 10×EC50 (900 nM), SYBR green flow cytometry at 12, 24, 36, 48 h) | asexual parasite stage of arrest ([1]; 38 at 10×EC50 (900 nM), synchronized ring stage parasites, Giemsa smears, up to 48 h) | SERA5 processing (western blot) [2] | ASP processing by PMIX (western blot) [3]
C[C@@H](NC[C@@H](O)[C@H](Cc1ccccc1)NC(=O)c1ccc(C(=O)N2CCN(C)CC2)cc1)c1ccccc1 [Compd 2, reference compound] | 650 | 1.4 | > 500 | 0.6 | inhibition of merozoite egress | – | – | – | – | –
C[C@@H](NC[C@@H](O)[C@H](Cc1ccccc1)NC(=O)[C@H](CO)NC(=O)OCc1ccccc1)c1ccccc1 [Compd 38, Cbz‐Ser‐Phe‐HEA‐Bn(CH3)⋅TFA] | – | – | – | – | – | > 40000 | unable to establish infection beyond 36 h | arrests asexual parasites at the schizont stage | complete inhibition of SERA5 processing | partial inhibition of PMIX processing
